Holding throughout (test): In vitro antibacterial activity (MIC), standard agar-dilution test
Common to all, as to assay type: cell-based

One experiment relates to S. pneumoniae UC41. The settings on record: Streptococcus pneumoniae, inoculum about 10⁴ CFU/ml, 18-24 h at 37°C. The method, then: (§1) Isosensitest broth (Oxoid) and Todd-Hewitt broth (Difco) are used for growing staphylococci and streptococci, respectively. Broth cultures are diluted so that the final inoculum is about 10⁴ colony forming units/ml (CFU/ml).
The subject of another experiment is S. pyogenes C203. The settings on record: Streptococcus pyogenes, inoculum about 10⁴ CFU/ml, 18-24 h at 37°C. The method, then:
as §1

For experiment [1], the system named is S. epidermidis ATCC 12228. The settings on record: Staphylococcus epidermidis, ATCC12228, inoculum about 10⁴ CFU/ml, 18-24 h at 37°C. The method, then:
as §1

For a further experiment, the system named is S. aureus Tour. As to conditions: Staphylococcus aureus, inoculum about 10⁴ CFU/ml, 18-24 h at 37°C. The method, then:
as §1

Another experiment concerns S. faecalis ATCC 7080. As to conditions: Enterococcus faecalis, ATCC7080, inoculum about 10⁴ CFU/ml, 18-24 h at 37°C. The method, then:
as §1

Another experiment concerns P. aeruginosa ISM. The settings on record: Pseudomonas aeruginosa, inoculum about 10⁴ CFU/ml, 18-24 h at 37°C.
Experiment [2] relates to P. vulgaris X19H ATCC 881. As to conditions: Proteus vulgaris, ATCC881, inoculum about 10⁴ CFU/ml, 18-24 h at 37°C.
The next experiment has as its system E. coli SKF 12140. The settings on record: Escherichia coli, SKF12140, inoculum about 10⁴ CFU/ml, 18-24 h at 37°C.
The subject of the next experiment is S. haemolyticus L 602. As to conditions: Staphylococcus haemolyticus, L602, inoculum about 10⁴ CFU/ml, 18-24 h at 37°C. Here is the method:
as §1

Where [3] appears, read: S. aureus Tour + 30% bovine serum.

Data on two molecules can be found in patent publication EP0351685A2, “Process for preparing n15-alkyl derivatives of teicoplanin compounds” (GRUPPO LEPETIT S.p.A., priority 1988, dated 1990).

≈ marks a conversion by molar mass, not a printed value.

Broadly, the MIC is the lowest concentration found to suppress growth.

For `O=C1NC2C(=O)NC3C(=O)NC4C(=O)NC(C(=O)NC(C(=O)O)c5cc(O)cc(O)c5-c5cc4ccc5O)C(O)c4ccc(c(Cl)c4)Oc4cc3cc(c4O)Oc3ccc(cc3Cl)CC1NC(=O)C(NC1CCCC1)c1ccc(O)c(c1)Oc1cc(O)cc2c1` (stereo not shown) [Compound 11], the MIC in the experiment with S. pneumoniae UC41 is 0.06 µg/mL (≈ 0.0474 µM); in the experiment with S. pyogenes C203 it was 0.12 µg/mL (≈ 0.0947 µM); in experiment [1], 0.03 µg/mL (≈ 0.0237 µM); in the experiment with S. aureus Tour (setting [3]), 0.5 µg/mL; in the experiment with S. aureus Tour (S. aureus Tour), 0.06 µg/mL (≈ 0.0474 µM); in the experiment on S. faecalis ATCC 7080, 0.25 µg/mL (≈ 0.197 µM). In addition, the MIC (against P. aeruginosa ISM; in experiment [2]; against E. coli SKF 12140) was greater than 128 µg/mL each time.

As to `CCNC1C(=O)NC2Cc3ccc(c(Cl)c3)Oc3cc4cc(c3O)Oc3ccc(cc3Cl)C(O)C3NC(=O)C(NC(=O)C4NC(=O)C(NC2=O)c2cc(O)cc(c2)Oc2cc1ccc2O)c1ccc(O)c(c1)-c1c(O)cc(O)cc1C(C(=O)O)NC3=O` (stereo not shown) [Compound 9], the MIC against S. pneumoniae UC41 was found to be 0.12 µg/mL (≈ 0.0978 µM); in the experiment with S. pyogenes C203, 0.06 µg/mL (≈ 0.0489 µM); in experiment [1] it was 0.03 µg/mL (≈ 0.0245 µM); with S. aureus Tour (setting [3]) it was 0.25 µg/mL; with S. aureus Tour (S. aureus Tour) it was 0.06 µg/mL (≈ 0.0489 µM); in the experiment on S. faecalis ATCC 7080, 0.12 µg/mL (≈ 0.0978 µM). The MIC in the experiment on S. haemolyticus L 602 was 0.25 µg/mL (≈ 0.204 µM); in the experiment with P. aeruginosa ISM it was greater than 128 µg/mL; in experiment [2], greater than 128 µg/mL; with E. coli SKF 12140, greater than 128 µg/mL.
